Assay results as given in ChEMBL document CHEMBL1201862, “PubChem BioAssay data set” (2004).
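Growth conditions: 96-well plates. Treatment: test compound, 48 hours, 5 concentrations. Analysis: linear interpolation between bracketing concentrations; unreached endpoints set to highest concentration. GI50 is the concentration that inhibits growth by half.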 Activity calls are given as the source filed them. No stated cut-off is given here; in the data, active = GI50 up to about 1.1 µM and inactive = higher.

Key:
Test in all cases: NCI anticancer screen, dose series, 48 h
786-0 = system: 786-0
A549 = system: A549
ACHN = system: ACHN
CAKI-1 = system: CAKI-1
CCRF-CEM = system: CCRF-CEM
COLO 205 = system: COLO 205
DLD-1 = system: DLD-1
DMS-114 = system: DMS-114
DMS-273 = system: DMS-273
EKVX = system: EKVX
HCC 2998 = system: HCC 2998
HCT-116 = system: HCT-116
HCT-15 = system: HCT-15
HL-60 = system: HL-60
HOP-18 = system: HOP-18
HOP-62 = system: HOP-62
HT-29 = system: HT-29
IGROV-1 = system: IGROV-1
K562 = system: K562
KM-20L2 = system: KM-20L2
KM12 = system: KM12
LOX IMVI = system: LOX IMVI
LXFL 529 = system: LXFL 529
M14 = system: M14
M19-MEL = system: M19-MEL
MOLT-4 = system: MOLT-4
Malme-3M = system: Malme-3M
NCI-H226 = system: NCI-H226
NCI-H23 = system: NCI-H23
NCI-H460 = system: NCI-H460
NCI-H522 = system: NCI-H522
OVCAR-3 = system: OVCAR-3
OVCAR-4 = system: OVCAR-4
OVCAR-8 = system: OVCAR-8
RPMI-8226 = system: RPMI-8226
RXF 393 = system: RXF 393
SF-268 = system: SF-268
SF-295 = system: SF-295
SF-539 = system: SF-539
SK-MEL-28 = system: SK-MEL-28
SK-MEL-2 = system: SK-MEL-2
SK-MEL-5 = system: SK-MEL-5
SK-OV-3 = system: SK-OV-3
SN12C = system: SN12C
SNB-19 = system: SNB-19
SNB-75 = system: SNB-75
SNB-78 = system: SNB-78
SW-620 = system: SW-620
TK-10 = system: TK-10
U-251 = system: U-251
UACC-257 = system: UACC-257
UACC-62 = system: UACC-62
UO-31 = system: UO-31
XF498 = system: XF498

## O=C1SC(c2ccccc2)(c2ccccc2)c2ccccc21
786-0
  GI50: > 100 µM (inactive)
A549
  GI50: 50.9 µM (inactive)
ACHN
  GI50: 34.3 µM (inactive)
CAKI-1
  GI50: > 100 µM (inactive)
CCRF-CEM
  GI50: 94.6 µM (inactive)
COLO 205
  GI50: > 100 µM (inactive)
DLD-1
  GI50: 52.8 µM (inactive)
DMS-114
  GI50: 26 µM (inactive)
DMS-273
  GI50: > 100 µM (inactive)
EKVX
  GI50: 63.5 µM (inactive)
HCC 2998
  GI50: > 100 µM (inactive)
HCT-116
  GI50: > 100 µM (inactive)
HCT-15
  GI50: > 100 µM
HL-60
  GI50: 41.3 µM (inactive)
HOP-18
  GI50: > 100 µM (inactive)
HOP-62
  GI50: > 100 µM (inactive)
HT-29
  GI50: 57.7 µM (inactive)
IGROV-1
  GI50: > 100 µM (inactive)
K562
  GI50: 74.5 µM (inactive)
KM-20L2
  GI50: 46.8 µM (inactive)
KM12
  GI50: 66.8 µM (inactive)
LOX IMVI
  GI50: > 100 µM (inactive)
LXFL 529
  GI50: > 100 µM (inactive)
M14
  GI50: 64.6 µM (inactive)
M19-MEL
  GI50: > 100 µM (inactive)
MOLT-4
  GI50: 82.8 µM (inactive)
Malme-3M
  GI50: > 100 µM (inactive)
NCI-H226
  GI50: > 100 µM (inactive)
NCI-H23
  GI50: > 100 µM (inactive)
NCI-H460
  GI50: 69.7 µM (inactive)
NCI-H522
  GI50: 68.4 µM (inactive)
OVCAR-3
  GI50: > 100 µM (inactive)
OVCAR-4
  GI50: 92.5 µM (inactive)
OVCAR-8
  GI50: > 100 µM (inactive)
RPMI-8226
  GI50: 45.5 µM (inactive)
RXF 393
  GI50: 44.1 µM (inactive)
SF-268
  GI50: > 100 µM (inactive)
SF-295
  GI50: > 100 µM (inactive)
SF-539
  GI50: > 100 µM (inactive)
SK-MEL-28
  GI50: > 100 µM (inactive)
SK-MEL-2
  GI50: > 100 µM (inactive)
SK-MEL-5
  GI50: 46.3 µM (inactive)
SK-OV-3
  GI50: > 100 µM (inactive)
SN12C
  GI50: > 100 µM (inactive)
SNB-19
  GI50: > 100 µM (inactive)
SNB-75
  GI50: > 100 µM (inactive)
SNB-78
  GI50: > 100 µM (inactive)
SW-620
  GI50: 71.6 µM (inactive)
TK-10
  GI50: 88.3 µM (inactive)
U-251
  GI50: > 100 µM (inactive)
UACC-257
  GI50: > 100 µM (inactive)
UACC-62
  GI50: 68.1 µM (inactive)
UO-31
  GI50: 56.2 µM (inactive)
XF498
  GI50: > 100 µM (inactive)
